This test has as its system Enterobacter cloacae QZ18103. As to conditions: QZ18103, 24 h.

Data on one substance can be found in patent US20240138406A1, “ANTIMICROBIAL PEPTIDE SCYAMPCIN44-63 AND APPLICATION THEREOF” (Xiamen University, priority 2021, published 2024).

No end group written: not given here.

For orientation: MBC means the lowest tested concentration that kills the bacteria rather than only halting them.

Substance “GKKKKRNMMKTKEPGIIFFF-NH2 [Scyampcin44-63]” yielded an MBC of 3 to 6 µM.
